Laboratory results published in PubChem BioAssay AID330 (DTP/NCI, 2004).
“And” between values parts separate entries of the source, which are not always exact repeats. Identical values can stand only once. Inconclusive results and toxic doses are left out. How the source made its calls: active means survival T/C of 150% or more; inactive means T/C below 125% in these data.

Tested on: P388 leukemia ip, CD2F1 mice, survival T/C
Assay: NCI In Vivo Anticancer Drug Screen. Data for tumor model P388 Leukemia (intraperitoneal) in CD2F1 (CDF1) mice
Details: endpoint: median survival time, higher = longer survival
How it was run: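 Mice carrying the transplanted tumor received test compound or vehicle. Survival was recorded in each group, and the value is the treated-group measurement divided by that of the vehicle-treated control group.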

[1] = dose: 50.0 mg/kg/injection, schedule: Q01DX009 (ip), vehicle: saline
[2] = dose: 100.0 mg/kg/injection, schedule: Q01DX009 (ip), vehicle: saline
[3] = dose: 200.0 mg/kg/injection, schedule: Q01DX009 (ip), vehicle: saline
[4] = dose: 50.0 mg/kg/injection, schedule: Q01DX009 (ip), vehicle: Klucel (hydroxypropylcellulose) (HPC)
[5] = dose: 50.0 mg/kg/injection, schedule: Q01DX005 (ip), vehicle: saline with Tween-80
[6] = dose: 100.0 mg/kg/injection, schedule: Q01DX005 (ip), vehicle: saline with Tween-80
[7] = dose: 200.0 mg/kg/injection, schedule: Q01DX005 (ip), vehicle: saline with Tween-80
[8] = dose: 100.0 mg/kg/injection, schedule: Q04DX003 (ip), vehicle: saline with Tween-80
[9] = dose: 200.0 mg/kg/injection, schedule: Q04DX003 (ip), vehicle: saline with Tween-80
[10] = dose: 100.0 mg/kg/injection, schedule: Q01DX009 (ip), vehicle: saline with Tween-80
[11] = dose: 200.0 mg/kg/injection, schedule: Q01DX009 (ip), vehicle: saline with Tween-80
[12] = dose: 400.0 mg/kg/injection, schedule: Q01DX009 (ip), vehicle: saline with Tween-80

Measured: T/C

COc1cc(N=Nc2ccc([N+](=O)[O-])cc2)c([OH+]C)cc1[N+]#N.COc1cc(N=Nc2ccc([N+](=O)[O-])cc2)c([OH+]C)cc1[N+]#N.[Cl][Zn][Cl]
inactive: [1] 110 % of control and 112 % of control and 117 % of control | [2] 111 % of control and 117 % of control and 119 % of control | [3] 116 % of control and 119 % of control | dose: 400.0 mg/kg/injection, schedule: Q01DX009 (ip), vehicle: saline 107 % of control

Nc1ncnc2ncn(CC(O)CN(CCO)CCO)c12 (stereo unspecified)
inactive: dose: 60.0 mg/kg/injection, schedule: Q01DX005 (ip), vehicle: Klucel (hydroxypropylcellulose) (HPC) 100 % of control | dose: 120.0 mg/kg/injection, schedule: Q01DX005 (ip), vehicle: Klucel (hydroxypropylcellulose) (HPC) 97 % of control | dose: 240.0 mg/kg/injection, schedule: Q01DX005 (ip), vehicle: Klucel (hydroxypropylcellulose) (HPC) 95 % of control

CCOP(=O)(OCC)C1OCC(O)C(C2OC(P(=O)(OCC)OCC)OCC2O)O1 (stereo unspecified)
inactive: [1] 109 % of control | [2] 112 % of control | [3] 112 % of control

Cc1ccc(Cl)c(NC(=S)NCc2cccnc2)c1
inactive: [4] 97 % of control | dose: 100.0 mg/kg/injection, schedule: Q01DX009 (ip), vehicle: Klucel (hydroxypropylcellulose) (HPC) 103 % of control | dose: 200.0 mg/kg/injection, schedule: Q01DX009 (ip), vehicle: Klucel (hydroxypropylcellulose) (HPC) 108 % of control

FC(F)(F)C(Cl)(c1ccc(Cl)cc1)c1ccc(Cl)cc1
inactive: dose: 50.0 mg/kg/injection, schedule: Q01DX005 (sc), vehicle: olive oil, sesame oil, peanut oil 96 % of control | dose: 100.0 mg/kg/injection, schedule: Q01DX005 (sc), vehicle: olive oil, sesame oil, peanut oil 96 % of control | dose: 200.0 mg/kg/injection, schedule: Q01DX005 (sc), vehicle: olive oil, sesame oil, peanut oil 95 % of control | dose: 400.0 mg/kg/injection, schedule: Q01DX005 (sc), vehicle: olive oil, sesame oil, peanut oil 100 % of control

O=C1OCC(c2ccccc2)(c2ccccc2)C(=O)N1O
inactive: [5] 98 % of control | [6] 103 % of control | [7] 91 % of control

CC(C)=CCCC(=O)C(c1nc2n(c1O)C(=N)N=N2)c1nc2n(c1O)C(=N)N=N2 (stereo unspecified)
inactive: dose: 60.0 mg/kg/injection, schedule: Q01DX005 (ip), vehicle: saline 95 % of control | dose: 120.0 mg/kg/injection, schedule: Q01DX005 (ip), vehicle: saline 97 % of control | dose: 240.0 mg/kg/injection, schedule: Q01DX005 (ip), vehicle: saline 97 % of control

CN(C)N1Cc2ccccc2NC1=O
inactive: dose: 50.0 mg/kg/injection, schedule: Q01DX005 (ip), vehicle: Klucel (hydroxypropylcellulose) (HPC) 102 % of control | dose: 100.0 mg/kg/injection, schedule: Q01DX005 (ip), vehicle: Klucel (hydroxypropylcellulose) (HPC) 96 % of control | dose: 200.0 mg/kg/injection, schedule: Q01DX005 (ip), vehicle: Klucel (hydroxypropylcellulose) (HPC) 110 % of control

NC(CC(=O)O)CC(=O)O
inactive: dose: 25.0 mg/kg/injection, schedule: Q01DX005 (ip), vehicle: saline with Tween-80 93 % of control | [5] 95 % of control | [6] 98 % of control | [7] 90 % of control | dose: 400.0 mg/kg/injection, schedule: Q01DX005 (ip), vehicle: saline with Tween-80 89 % of control

CC(=O)OCC(Br)C(Br)COC(C)=O (stereo unspecified)
inactive: [8] 100 % of control | [9] 100 % of control | dose: 400.0 mg/kg/injection, schedule: Q04DX003 (ip), vehicle: saline with Tween-80 100 % of control

O=C1OC2(CCCCC2)OC(=O)C1=Cc1ccc([N+](=O)[O-])s1
inactive: [8] 114 % of control | [9] 105 % of control

CCCCC(C)(CN(C)C)C(=O)/C=C/c1ccccc1 (stereo unspecified)
inactive: [1] 108 % of control | [2] 115 % of control | [3] 86 % of control

O=Cc1ccc2nc(C(Cl)(Cl)Cl)ccc2c1
inactive: dose: 50.0 mg/kg/injection, schedule: Q01DX009 (ip), vehicle: saline with Tween-80 100 % of control | [10] 105 % of control | [11] 100 % of control

CCOc1c(N=Nc2ccccc2C)c(-c2ccccc2)nn1C(N)=S
inactive: [5] 90 % of control | [6] 88 % of control | [7] 90 % of control

CCC(C)N(CCNc1cc(OC)cc2cccnc12)CC(C)C (stereo unspecified)
inactive: dose: 12.5 mg/kg/injection, schedule: Q01DX005 (ip), vehicle: saline 104 % of control | dose: 25.0 mg/kg/injection, schedule: Q01DX005 (ip), vehicle: saline 104 % of control | dose: 50.0 mg/kg/injection, schedule: Q01DX005 (ip), vehicle: saline 101 % of control and 95 % of control

C[C@]12CCC(=O)C[C@@H]1CC[C@@H]1[C@@H]2CC[C@]2(C)[C@@H](OC(=O)N(CCCl)N=O)CC[C@@H]12
inactive: dose: 25.0 mg/kg/injection, schedule: Q01DX005 (ip), vehicle: other 105 % of control | dose: 25.0 mg/kg/injection, schedule: Q01DX009 (ip), vehicle: other 120 % of control | dose: 25.0 mg/kg/injection, schedule: Q01DX009 (ip), vehicle: saline 106 % of control | dose: 31.2 mg/kg/injection, schedule: Q04DX003 (ip), vehicle: saline 116 % of control | dose: 50.0 mg/kg/injection, schedule: Q01DX005 (ip), vehicle: other 105 % of control | [1] 121 % of control | dose: 62.5 mg/kg/injection, schedule: Q04DX003 (ip), vehicle: saline 110 % of control | dose: 100.0 mg/kg/injection, schedule: Q01DX005 (ip), vehicle: other 112 % of control | dose: 100.0 mg/kg/injection, schedule: Q01DX009 (ip), vehicle: other 100 % of control

Nc1nc2nc(-c3ccccc3)nc(N)c2nc1C(=O)N/N=C/c1ccccc1
inactive: [10] 96 % of control | [11] 95 % of control | [12] 100 % of control

CC1(C)OCC(CO)O1 (stereo unspecified)
inactive: [1] 106 % of control | [2] 114 % of control | [3] 111 % of control

CC(=O)Nc1ccn(C)c1[N+](=O)[O-]
inactive: dose: 100.0 mg/kg/injection, schedule: Q01DX001 (ip), vehicle: Klucel (hydroxypropylcellulose) (HPC) 100 % of control | dose: 200.0 mg/kg/injection, schedule: Q01DX001 (ip), vehicle: Klucel (hydroxypropylcellulose) (HPC) 97 % of control | dose: 400.0 mg/kg/injection, schedule: Q01DX001 (ip), vehicle: Klucel (hydroxypropylcellulose) (HPC) 102 % of control

CCCCCN(C)C12CN3CN(CN(C3)C1)C2
inactive: [1] 103 % of control | [2] 103 % of control | [3] 99 % of control

CN(C)Cc1cc(C(=O)c2ccccc2)c(O)cc1O
inactive: dose: 25.0 mg/kg/injection, schedule: Q01DX009 (ip), vehicle: Klucel (hydroxypropylcellulose) (HPC) 103 % of control | [4] 103 % of control

CC(C)CC(=O)C1C(c2ccccc2)CC(=O)C(C(C)C)C1c1ccccc1 (stereo unspecified)
inactive: [5] 92 % of control | [6] 92 % of control

COc1c(OC(C)=O)ccc2c1C=CCCC2=O
inactive: [10] 104 % of control | [11] 102 % of control | [12] 102 % of control

CCOC(=O)/[C](=N\N=P(N(C)C)(N(C)C)N(C)C)[Sb]([CH3])[CH3]
inactive: dose: 12.5 mg/kg/injection, schedule: Q01DX001 (ip), vehicle: saline 99 % of control | dose: 25.0 mg/kg/injection, schedule: Q01DX001 (ip), vehicle: saline 102 % of control

O=c1cc2n(c(=O)n1-c1ccccc1)CCCC2
inactive: dose: 60.0 mg/kg/injection, schedule: Q01DX005 (ip), vehicle: saline with Tween-80 102 % of control | dose: 120.0 mg/kg/injection, schedule: Q01DX005 (ip), vehicle: saline with Tween-80 100 % of control | dose: 240.0 mg/kg/injection, schedule: Q01DX005 (ip), vehicle: saline with Tween-80 103 % of control
